From ChEMBL document CHEMBL1201862, “PubChem BioAssay data set” (2004)
Several values for one entry are separate records, joined by “and”; a condition that tells them apart may be missing. Equal values may be shown once.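 Growth conditions: 96-well plates. Treatment: test compound, 48 hours, 5 concentrations. Analysis: linear interpolation between bracketing concentrations; unreached endpoints set to highest concentration. GI50 marks 50% less growth.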 Activity calls are given as the source filed them. Rule as the data show it: active = GI50 up to about 1.1 µM and inactive = higher.

Key:
Assay in all cases: DTP human tumour cell line panel, 48 h
[1] = system: A549
[2] = system: CCRF-CEM
[3] = system: COLO 205
[4] = system: EKVX
[5] = system: HOP-62
[6] = system: IGROV-1
[7] = system: KM-20L2
[8] = system: LOX IMVI
[9] = system: MDA-MB-435
[10] = system: MOLT-4
[11] = system: NCI-H522
[12] = system: OVCAR-4
[13] = system: PC-3
[14] = system: SK-MEL-28
[15] = system: SK-OV-3
[16] = system: SN12C
[17] = system: SNB-19
[18] = system: SW-620
[19] = system: TK-10
[20] = system: U-251

Row | SMILES | GI50 [1] | GI50 [2] | GI50 [3] | GI50 [4] | GI50 [5] | GI50 [6] | GI50 [7] | GI50 [8] | GI50 [9] | GI50 [10] | GI50 [11] | GI50 [12] | GI50 [13] | GI50 [14] | GI50 [15] | GI50 [16] | GI50 [17] | GI50 [18] | GI50 [19] | GI50 [20]
1 | O=[N+]([O-])c1ccc2c(Nc3ccccc3-c3ccccc3Nc3c4ccccc4nc4cc([N+](=O)[O-])ccc34)c3ccccc3nc2c1 | 6.07 µM (inactive) | 3.88 µM (inactive) | 2.74 µM (inactive) | 11.8 µM (inactive) | 9.33 µM (inactive) | 10.8 µM (inactive) | 5.32 µM (inactive) | 9.57 µM (inactive) | 1.34 µM (inactive) | 4.01 µM (inactive) | 3.87 µM (inactive) | 10 µM (inactive) | 1.44 µM (inactive) | 24.2 µM (inactive) | 13.2 µM (inactive) | 2.54 µM (inactive) | 4.32 µM (inactive) | 1.69 µM (inactive) | 4.46 µM (inactive) | 2.94 µM (inactive)
2 | CC1CCC2(C(=O)O)CCC3(C)C(=CCC4C5(C)CCC(O)C(C)(C)C5CCC43C)C2C1C (stereo not drawn) |  |  | 13.7 µM (inactive) and 14.7 µM (inactive) | 10.6 µM (inactive) and 13.8 µM (inactive) | 16.5 µM (inactive) and 9.33 µM (inactive) | 13.4 µM (inactive) and 18.2 µM (inactive) | 8.24 µM (inactive) | 4.13 µM (inactive) and 6.59 µM (inactive) | 30.1 µM (inactive) |  |  | 17.3 µM (inactive) and 13.3 µM (inactive) | 15.8 µM (inactive) |  | 18.2 µM (inactive) and 15.5 µM (inactive) | 10.3 µM (inactive) and 18 µM (inactive) | 10.3 µM (inactive) |  | 19.7 µM (inactive) | 9.68 µM (inactive) and 17.8 µM (inactive)
3 | CC(=O)[C@]1(O)Cc2c(O)c3c(c(O)c2[C@@H](OC2CC(N)C(O)C(C)O2)C1)C(=O)c1c(OCc2ccccc2)cccc1C3=O (stereo partly drawn) | 0.75 µM (active) | 0.202 µM (active) | 1.16 µM (inactive) | 3.05 µM (inactive) | 1.84 µM (inactive) | 7.98 µM (inactive) | 1.15 µM (inactive) | 0.604 µM (active) | 1.43 µM (inactive) | 0.0741 µM (active) | 1.48 µM (inactive) | 2.43 µM (inactive) | 1.26 µM (inactive) | 1.54 µM (inactive) | 4.06 µM (inactive) | 1.37 µM (inactive) | 1.5 µM (inactive) | 0.544 µM (active) | 9.75 µM (inactive) | 1.07 µM (active)
4 | CC(Oc1ccc(Oc2cnc3ccc(Cl)cc3n2)cc1)C(=O)O (stereo not drawn) | 81.1 µM (inactive) |  | 55.7 µM (inactive) | > 99.8 µM (inactive) | > 74.5 µM (inactive) | > 64.1 µM (inactive) | > 100 µM (inactive) | 51.6 µM (inactive) | > 84.5 µM (inactive) | 11.7 µM (inactive) | 29.5 µM (inactive) | > 92.5 µM (inactive) | > 100 µM (inactive) | > 76.7 µM (inactive) | > 100 µM (inactive) | > 100 µM (inactive) | > 62.1 µM (inactive) | > 91.6 µM (inactive) | > 95.9 µM (inactive) | > 63.7 µM (inactive)
